Assay results published in patent publication US9504659B2 (priority 2006, dated 2016).

Test: ER804057 content of the emulsion by extraction and HPLC-UV after storage
Assay type: physicochemical
Settings: emulsion PIT-ER804057 at 5%; for ER804057 content in the emulsion: theoretical concentration 40 μg/ml
Protocol: The stability of this thermoreversible emulsion was evaluated after storage for 6 months at a temperature of +4° C. by verifying the ER804057 content in the emulsion and by checking the size distribution of oil droplets in the emulsion. To assay ER804057, a selective extraction of ER804057 from the emulsion was carried out, followed by analysis by high performance liquid chromatography (HPLC) coupled to UV detector equipped with […]. The ER804057 content of the emulsion to be verified was determined using a standard range containing between 5 and 25 μg/ml of ER804057. In order to compensate for the variations in extraction yields, a constant amount of an internal standard, the chemical structure of which is very similar to that of ER804057, was introduced into each sample to be assayed (including into the samples of the standard range). This internal standard was the chemical molecule called ER803022.
The sample of PIT-ER804057 at 5% to be assayed was prepared by taking an aliquot of the emulsion PIT-ER804057 at 5%, to which 10 μg of internal standard was added, and which was diluted in water for injectable preparation.
The extraction of ER804057 from the samples of the standard range or from the samples of PIT-ER804057 at 5% was carried out in the following way: The sample was solubilized with CM2:1. The two-phase system obtained was composed of a chloroform phase containing predominantly ER804057 and an aqueous phase containing the other compounds of the emulsion. The chloroform phase was recovered and evaporated under hot conditions under a stream of nitrogen. The dry extract obtained was taken up and again solubilized in the CM2:1 mixture. […] The dry extract derived from each sample was conserved at −20° C. before being analyzed by HPLC.
The dry extract of each sample was taken up with 50 μl of CM4:1, and then diluted to ½ in methanol, then to 1/10th in a mixture of 30% acetonitrile-water for injectable preparation, 20 μl of the dilution were injected into a liquid chromatography apparatus (HPLC Merck Hitachi, serie 7000) comprising a Waters XTerra™ RP8 column pre-equilibrated in a mobile phase consisting of a mixture of 80% of phase A (water for injectable preparation/ethanol 50/50 containing 2% H3PO4) and 20% of phase B (ethanol containing 2% H3PO4), ER804057 and the internal standard were eluted using a gradient of ethanol containing 2% H3PO4. At the outlet of the HPLC, the eluate meets the UV detector and the molecules are detected at the wavelength of 215 nm. […] Once the curve was established, the amount of ER804057 present in the emulsion PIT-ER804057 at 5% was then determined by measuring the ratio of the surface areas of the ER804057/internal standard peaks.

For `CCCCCCCCCCCC(=O)CC(=O)N[C@H](COCC[C@@H](CCCCCCC)OC(=O)CCCCCCCCCCC)COP(=O)(O)OCCNC(=O)NCCOP(=O)(O)OC[C@@H](COCC[C@@H](CCCCCCC)OC(=O)CCCCCCCCCCC)NC(=O)CC(=O)CCCCCCCCCCC` [ER804057, dodecanoic acid (1R,6R,22R,27R)-1,27-diheptyl-9,19-dihydroxy-9,19-dioxido-14-oxo-6,22-bis[(1,3-dioxotetradecyl)amino]-4,8,10,18,20,24-hexaoxa-13,15-diaza-9,19-diphosphaheptacosane-1,27-diyl ester], the “ER804057 content in the emulsion” value (1 month at +4° C.) was 38 µg/mL, the “ER804057 content in the emulsion” value (3 months at +4° C.) was 37 µg/mL and the “change of ER804057 concentration in the emulsion on storage” value (6 months at +4° C.) was “has not substantially varied”. For the same compound, the “ER804057 content in the emulsion” value (6 months at +4° C.) was 42 µg/mL.
